Data: ChEMBL document CHEMBL4507257, “Data for DCP probe ABT-100” (2021)

What was measured:
[1] = tested on: Tyrosine-protein kinase ABL1 (Homo sapiens), P00519 [F317I]; conditions: Compound concentration 1000.0 nM
[2] = tested on: Tyrosine-protein kinase ABL1 (Homo sapiens), P00519 [Y253F]; conditions: Compound concentration 1000.0 nM
[3] = molecular target: RAC-alpha serine/threonine-protein kinase (Homo sapiens) (UniProt P31749); conditions: Compound concentration 1000.0 nM
[4] = molecular target: Calcium/calmodulin-dependent protein kinase type II subunit alpha (Homo sapiens) (UniProt Q9UQM7); conditions: Compound concentration 1000.0 nM
[5] = molecular target: Cyclin-dependent kinase 3 (Homo sapiens) (UniProt Q00526); conditions: Compound concentration 1000.0 nM
[6] = molecular target: Cyclin-dependent kinase-like 5 (Homo sapiens) (UniProt O76039); conditions: Compound concentration 1000.0 nM
[7] = molecular target: Death-associated protein kinase 1 (Homo sapiens) (UniProt P53355); conditions: Compound concentration 1000.0 nM
[8] = molecular target: Myotonin-protein kinase (Homo sapiens) (UniProt Q09013); conditions: Compound concentration 1000.0 nM
[9] = molecular target: Serine/threonine-protein kinase/endoribonuclease IRE1 (Homo sapiens) (UniProt O75460); conditions: Compound concentration 1000.0 nM
[10] = molecular target: Tyrosine-protein kinase Fgr (Homo sapiens) (UniProt P09769); conditions: Compound concentration 1000.0 nM
[11] = molecular target: Receptor-type tyrosine-protein kinase FLT3 (Homo sapiens) (UniProt P36888); conditions: Compound concentration 1000.0 nM
[12] = tested on: Receptor-type tyrosine-protein kinase FLT3 (Homo sapiens), P36888 [UNDEFINED MUTATION]; conditions: Compound concentration 1000.0 nM
[13] = molecular target: Beta-adrenergic receptor kinase 1 (Homo sapiens) (UniProt P25098); conditions: Compound concentration 1000.0 nM
[14] = molecular target: Homeodomain-interacting protein kinase 1 (Homo sapiens) (UniProt Q86Z02); conditions: Compound concentration 1000.0 nM
[15] = molecular target: Tyrosine-protein kinase ITK/TSK (Homo sapiens) (UniProt Q08881); conditions: Compound concentration 1000.0 nM
[16] = molecular target: Mitogen-activated protein kinase 8 (Homo sapiens) (UniProt P45983); conditions: Compound concentration 1000.0 nM
[17] = molecular target: MAP kinase-activated protein kinase 5 (Homo sapiens) (UniProt Q8IW41); conditions: Compound concentration 1000.0 nM
[18] = molecular target: Myosin-IIIb (Homo sapiens) (UniProt Q8WXR4); conditions: Compound concentration 1000.0 nM
[19] = molecular target: Serine/threonine-protein kinase 38 (Homo sapiens) (UniProt Q15208); conditions: Compound concentration 1000.0 nM
[20] = molecular target: Mitogen-activated protein kinase 12 (Homo sapiens) (UniProt P53778); conditions: Compound concentration 1000.0 nM
[21] = tested on: Phosphatidylinositol 4,5-bisphosphate 3-kinase catalytic subunit alpha isoform (Homo sapiens), P42336 [C420R]; conditions: Compound concentration 1000.0 nM
[22] = tested on: Phosphatidylinositol 4,5-bisphosphate 3-kinase catalytic subunit alpha isoform (Homo sapiens), P42336 [E545A]; conditions: Compound concentration 1000.0 nM
[23] = molecular target: Phosphatidylinositol 4,5-bisphosphate 3-kinase catalytic subunit beta isoform (Homo sapiens) (UniProt P42338); conditions: Compound concentration 1000.0 nM
[24] = molecular target: Serine/threonine-protein kinase PLK1 (Homo sapiens) (UniProt P53350); conditions: Compound concentration 1000.0 nM
[25] = molecular target: Serine/threonine-protein kinase PLK4 (Homo sapiens) (UniProt O00444); conditions: Compound concentration 1000.0 nM
[26] = molecular target: Protein kinase C eta type (Homo sapiens) (UniProt P24723); conditions: Compound concentration 1000.0 nM
[27] = molecular target: Receptor-interacting serine/threonine-protein kinase 1 (Homo sapiens) (UniProt Q13546); conditions: Compound concentration 1000.0 nM
[28] = molecular target: Receptor-interacting serine/threonine-protein kinase 4 (Homo sapiens) (UniProt P57078); conditions: Compound concentration 1000.0 nM
[29] = molecular target: Rho-associated protein kinase 1 (Homo sapiens) (UniProt Q13464); conditions: Compound concentration 1000.0 nM
[30] = molecular target: Ribosomal protein S6 kinase alpha-5 (Homo sapiens) (UniProt O75582); conditions: Compound concentration 1000.0 nM
[31] = molecular target: Ribosomal protein S6 kinase alpha-2 (Homo sapiens) (UniProt Q15349); conditions: Compound concentration 1000.0 nM
[32] = molecular target: Serine/threonine-protein kinase SIK2 (Homo sapiens) (UniProt Q9H0K1); conditions: Compound concentration 1000.0 nM
[33] = molecular target: STE20-like serine/threonine-protein kinase (Homo sapiens) (UniProt Q9H2G2); conditions: Compound concentration 1000.0 nM
[34] = molecular target: SRSF protein kinase 3 (Homo sapiens) (UniProt Q9UPE1); conditions: Compound concentration 1000.0 nM
[35] = molecular target: STE20/SPS1-related proline-alanine-rich protein kinase (Homo sapiens) (UniProt Q9UEW8); conditions: Compound concentration 1000.0 nM
[36] = molecular target: Testis-specific serine/threonine-protein kinase 3 (Homo sapiens) (UniProt Q96PN8); conditions: Compound concentration 1000.0 nM
[37] = molecular target: Tyrosine-protein kinase receptor TYRO3 (Homo sapiens) (UniProt Q06418); conditions: Compound concentration 1000.0 nM
[38] = molecular target: Serine/threonine-protein kinase WNK1 (Homo sapiens) (UniProt Q9H4A3); conditions: Compound concentration 1000.0 nM
[39] = molecular target: Mitogen-activated protein kinase kinase kinase 19 (Homo sapiens) (UniProt Q56UN5); conditions: Compound concentration 1000.0 nM
[40] = molecular target: 5-hydroxytryptamine receptor 1E (Homo sapiens) (UniProt P28566); conditions: Compound concentration 10.0 uM
[41] = molecular target: Sodium-dependent dopamine transporter (Homo sapiens) (UniProt Q01959); conditions: Compound concentration 10.0 uM
[42] = molecular target: Alpha-1A adrenergic receptor (Homo sapiens) (UniProt P35348); conditions: Compound concentration 10.0 uM
[43] = molecular target: GABA-A receptor; anion channel (Rattus norvegicus) (UniProt O09028+P15431+P18506+P18508+P19969+P20236+P23574+P23576+P28471+P28473+P30191+P62813+P63079+P63138+Q91ZM7+Q9ES14); conditions: Compound concentration 10.0 uM

Myosin-IIIb (Homo sapiens), sequence (Q8WXR4 whole entry): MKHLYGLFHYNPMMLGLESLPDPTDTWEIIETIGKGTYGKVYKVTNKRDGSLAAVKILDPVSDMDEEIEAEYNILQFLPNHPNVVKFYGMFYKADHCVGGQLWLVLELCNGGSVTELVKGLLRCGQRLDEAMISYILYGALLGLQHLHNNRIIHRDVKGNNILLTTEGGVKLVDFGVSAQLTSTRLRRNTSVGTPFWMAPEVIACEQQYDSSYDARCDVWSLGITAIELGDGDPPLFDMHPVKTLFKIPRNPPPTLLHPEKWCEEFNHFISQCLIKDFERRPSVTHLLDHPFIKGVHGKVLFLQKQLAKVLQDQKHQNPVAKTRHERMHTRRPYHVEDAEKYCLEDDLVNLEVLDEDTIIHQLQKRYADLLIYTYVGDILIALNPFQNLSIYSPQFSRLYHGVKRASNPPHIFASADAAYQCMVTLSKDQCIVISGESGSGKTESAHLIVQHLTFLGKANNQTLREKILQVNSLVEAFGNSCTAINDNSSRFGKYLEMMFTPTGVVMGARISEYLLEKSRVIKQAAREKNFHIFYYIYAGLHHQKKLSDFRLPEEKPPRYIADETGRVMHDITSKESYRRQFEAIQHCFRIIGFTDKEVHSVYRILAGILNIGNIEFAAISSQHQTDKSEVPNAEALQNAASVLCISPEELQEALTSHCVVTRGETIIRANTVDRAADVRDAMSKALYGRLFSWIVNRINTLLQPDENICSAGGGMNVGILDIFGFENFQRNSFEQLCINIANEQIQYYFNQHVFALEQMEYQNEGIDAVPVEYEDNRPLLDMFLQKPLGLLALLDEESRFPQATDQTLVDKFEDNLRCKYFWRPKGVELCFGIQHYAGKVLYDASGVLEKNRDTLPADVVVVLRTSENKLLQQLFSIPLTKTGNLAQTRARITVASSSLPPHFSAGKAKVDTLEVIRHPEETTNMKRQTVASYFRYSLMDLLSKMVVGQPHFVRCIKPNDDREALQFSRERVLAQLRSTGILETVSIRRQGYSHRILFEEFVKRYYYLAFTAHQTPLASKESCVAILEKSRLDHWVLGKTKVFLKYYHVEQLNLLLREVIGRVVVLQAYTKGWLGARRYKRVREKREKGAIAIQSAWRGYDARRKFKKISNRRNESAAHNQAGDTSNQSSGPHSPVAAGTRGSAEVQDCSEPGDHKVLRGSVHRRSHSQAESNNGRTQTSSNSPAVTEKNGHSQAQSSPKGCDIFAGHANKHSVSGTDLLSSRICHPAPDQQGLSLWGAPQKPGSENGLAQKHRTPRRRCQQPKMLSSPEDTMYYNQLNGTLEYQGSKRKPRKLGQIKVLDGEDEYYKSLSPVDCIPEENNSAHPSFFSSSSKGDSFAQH
Death-associated protein kinase 1 (Homo sapiens), sequence (P53355 whole entry, looked up): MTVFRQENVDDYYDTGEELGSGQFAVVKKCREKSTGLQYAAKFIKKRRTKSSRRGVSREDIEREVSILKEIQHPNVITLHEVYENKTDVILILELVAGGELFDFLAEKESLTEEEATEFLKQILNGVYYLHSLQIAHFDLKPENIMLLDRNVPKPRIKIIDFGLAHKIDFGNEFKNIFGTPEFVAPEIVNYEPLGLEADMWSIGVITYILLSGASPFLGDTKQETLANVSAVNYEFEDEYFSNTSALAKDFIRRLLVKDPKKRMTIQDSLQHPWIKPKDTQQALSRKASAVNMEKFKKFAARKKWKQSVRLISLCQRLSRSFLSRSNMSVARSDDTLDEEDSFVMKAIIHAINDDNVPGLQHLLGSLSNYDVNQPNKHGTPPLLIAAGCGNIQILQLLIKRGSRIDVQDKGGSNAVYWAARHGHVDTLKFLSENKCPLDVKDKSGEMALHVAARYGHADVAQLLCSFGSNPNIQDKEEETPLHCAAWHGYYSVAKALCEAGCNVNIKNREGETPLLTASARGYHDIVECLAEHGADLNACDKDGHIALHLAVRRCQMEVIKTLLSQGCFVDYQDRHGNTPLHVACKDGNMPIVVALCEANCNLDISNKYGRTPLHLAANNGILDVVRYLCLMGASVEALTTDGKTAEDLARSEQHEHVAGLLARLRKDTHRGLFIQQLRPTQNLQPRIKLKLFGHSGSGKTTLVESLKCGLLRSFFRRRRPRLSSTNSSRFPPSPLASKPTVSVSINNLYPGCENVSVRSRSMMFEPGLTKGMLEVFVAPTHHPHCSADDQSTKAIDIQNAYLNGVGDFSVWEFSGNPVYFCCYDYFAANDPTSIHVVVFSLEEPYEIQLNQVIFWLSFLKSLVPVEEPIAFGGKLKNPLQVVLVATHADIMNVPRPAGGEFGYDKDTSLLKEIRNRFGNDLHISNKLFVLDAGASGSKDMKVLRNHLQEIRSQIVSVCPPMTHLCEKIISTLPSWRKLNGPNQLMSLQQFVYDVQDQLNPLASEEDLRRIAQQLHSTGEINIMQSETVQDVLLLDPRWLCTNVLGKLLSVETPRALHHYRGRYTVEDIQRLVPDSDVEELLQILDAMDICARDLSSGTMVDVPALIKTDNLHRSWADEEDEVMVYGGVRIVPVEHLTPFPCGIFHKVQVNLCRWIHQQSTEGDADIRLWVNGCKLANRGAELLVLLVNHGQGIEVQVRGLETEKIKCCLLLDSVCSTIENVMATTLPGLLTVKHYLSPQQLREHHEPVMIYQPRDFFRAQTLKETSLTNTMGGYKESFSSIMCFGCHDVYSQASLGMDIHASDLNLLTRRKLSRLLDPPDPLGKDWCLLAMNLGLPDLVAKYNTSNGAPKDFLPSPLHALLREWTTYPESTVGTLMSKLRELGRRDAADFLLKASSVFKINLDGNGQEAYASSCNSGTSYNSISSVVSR
Receptor-type tyrosine-protein kinase FLT3 (Homo sapiens), P36888 [UNDEFINED MUTATION], sequence (P36888 whole entry, looked up, change not shown): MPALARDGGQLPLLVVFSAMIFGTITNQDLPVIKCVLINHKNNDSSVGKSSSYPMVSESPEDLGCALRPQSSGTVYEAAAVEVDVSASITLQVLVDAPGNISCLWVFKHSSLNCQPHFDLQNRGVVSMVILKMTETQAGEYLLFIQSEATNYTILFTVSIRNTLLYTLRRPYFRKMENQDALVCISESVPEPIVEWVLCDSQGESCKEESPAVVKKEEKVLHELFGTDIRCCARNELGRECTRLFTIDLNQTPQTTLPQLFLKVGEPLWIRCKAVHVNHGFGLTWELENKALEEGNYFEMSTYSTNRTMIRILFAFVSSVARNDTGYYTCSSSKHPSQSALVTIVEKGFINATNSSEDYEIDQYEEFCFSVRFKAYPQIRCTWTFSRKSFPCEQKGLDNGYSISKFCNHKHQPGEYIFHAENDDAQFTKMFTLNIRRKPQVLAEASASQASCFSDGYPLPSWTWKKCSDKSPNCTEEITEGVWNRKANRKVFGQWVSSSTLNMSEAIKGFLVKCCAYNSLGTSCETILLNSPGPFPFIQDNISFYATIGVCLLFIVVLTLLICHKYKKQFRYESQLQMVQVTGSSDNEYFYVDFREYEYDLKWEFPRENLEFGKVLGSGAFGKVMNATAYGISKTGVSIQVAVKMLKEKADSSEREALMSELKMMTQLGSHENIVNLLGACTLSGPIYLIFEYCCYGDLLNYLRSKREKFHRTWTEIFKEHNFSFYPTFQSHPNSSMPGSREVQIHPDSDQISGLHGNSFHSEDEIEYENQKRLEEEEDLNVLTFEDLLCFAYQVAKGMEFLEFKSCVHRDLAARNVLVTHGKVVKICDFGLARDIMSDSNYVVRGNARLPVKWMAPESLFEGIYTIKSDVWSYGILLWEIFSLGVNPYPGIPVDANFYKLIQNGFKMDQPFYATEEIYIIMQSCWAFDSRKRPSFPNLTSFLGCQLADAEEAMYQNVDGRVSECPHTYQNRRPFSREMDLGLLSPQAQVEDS
Receptor-type tyrosine-protein kinase FLT3 (Homo sapiens), sequence (P36888 whole entry): as the sequence (P36888 whole entry, looked up, change not shown) above
Cyclin-dependent kinase-like 5 (Homo sapiens), sequence (O76039 whole entry): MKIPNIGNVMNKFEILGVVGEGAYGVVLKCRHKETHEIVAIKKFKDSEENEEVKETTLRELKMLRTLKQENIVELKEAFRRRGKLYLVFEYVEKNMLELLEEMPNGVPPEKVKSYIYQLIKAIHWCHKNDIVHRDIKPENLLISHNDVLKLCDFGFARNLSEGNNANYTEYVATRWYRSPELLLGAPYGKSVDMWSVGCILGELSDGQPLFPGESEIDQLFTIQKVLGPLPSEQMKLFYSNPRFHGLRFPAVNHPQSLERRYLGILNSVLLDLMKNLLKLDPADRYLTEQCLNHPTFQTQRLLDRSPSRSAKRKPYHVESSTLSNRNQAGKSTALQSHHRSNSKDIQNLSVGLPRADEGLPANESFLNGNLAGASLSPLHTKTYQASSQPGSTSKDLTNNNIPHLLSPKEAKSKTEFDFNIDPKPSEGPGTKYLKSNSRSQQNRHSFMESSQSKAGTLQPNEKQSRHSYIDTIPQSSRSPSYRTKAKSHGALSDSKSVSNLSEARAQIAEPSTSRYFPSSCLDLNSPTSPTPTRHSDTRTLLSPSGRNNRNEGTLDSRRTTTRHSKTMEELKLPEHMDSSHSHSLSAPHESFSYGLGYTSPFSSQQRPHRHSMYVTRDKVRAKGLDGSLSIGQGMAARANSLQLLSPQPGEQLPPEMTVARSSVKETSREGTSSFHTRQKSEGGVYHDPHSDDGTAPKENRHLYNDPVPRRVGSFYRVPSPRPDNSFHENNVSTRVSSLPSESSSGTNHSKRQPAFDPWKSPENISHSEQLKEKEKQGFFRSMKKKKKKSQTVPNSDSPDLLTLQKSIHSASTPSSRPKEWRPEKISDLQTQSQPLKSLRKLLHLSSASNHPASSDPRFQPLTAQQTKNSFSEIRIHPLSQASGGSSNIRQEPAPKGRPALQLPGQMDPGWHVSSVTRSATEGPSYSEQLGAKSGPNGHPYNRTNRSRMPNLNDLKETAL
Cyclin-dependent kinase 3 (Homo sapiens), sequence (Q00526 whole entry, looked up): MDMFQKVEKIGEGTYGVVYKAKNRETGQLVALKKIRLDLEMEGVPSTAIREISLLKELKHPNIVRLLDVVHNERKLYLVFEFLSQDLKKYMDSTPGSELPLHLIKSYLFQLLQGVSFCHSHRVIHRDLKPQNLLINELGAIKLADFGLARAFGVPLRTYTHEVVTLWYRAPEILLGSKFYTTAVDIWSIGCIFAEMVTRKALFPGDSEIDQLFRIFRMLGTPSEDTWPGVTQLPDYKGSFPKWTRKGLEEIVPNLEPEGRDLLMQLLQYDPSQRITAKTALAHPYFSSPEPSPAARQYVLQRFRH

Cn1cncc1[C@@](O)(COc1ccc(C#N)cc1-c1ccc(OC(F)(F)F)cc1)c1ccc(C#N)cc1 [A-108]
inactive: residual activity [1] 88% | residual activity [2] 92% | residual activity [3] 100% | residual activity [4] 84% | residual activity [5] 100% | residual activity [6] 93% | residual activity [7] 100% | residual activity [8] 94% | residual activity [9] 95% | residual activity [10] 100% | residual activity [11] 100% | residual activity [12] 89% | residual activity [13] 95% | residual activity [14] 79% | residual activity [15] 100% | residual activity [16] 77% | residual activity [17] 100% | residual activity [18] 55% | residual activity [19] 100% | residual activity [20] 100% | residual activity [21] 90% | residual activity [22] 86% | residual activity [23] 75% | residual activity [24] 83% | residual activity [25] 84% | residual activity [26] 95% | residual activity [27] 90% | residual activity [28] 94% | residual activity [29] 100% | residual activity [30] 88% | residual activity [31] 98% | residual activity [32] 100% | residual activity [33] 100% | residual activity [34] 56% | residual activity [35] 100% | residual activity [36] 100% | residual activity [37] 100% | residual activity [38] 100% | residual activity [39] 100% | inhibition [40] 7.11% | inhibition [41] 6.63% | inhibition [42] 4.51% | inhibition [43] 6.36%

Cn1cncc1[C@](O)(COc1ccc(C#N)cc1-c1ccc(OC(F)(F)F)cc1)c1ccc(C#N)cc1 [ABT-100]
inactive: residual activity [1] 100% | residual activity [2] 94% | residual activity [3] 84% | residual activity [4] 95% | residual activity [5] 71% | residual activity [6] 100% | residual activity [7] 84% | residual activity [8] 98% | residual activity [9] 100% | residual activity [10] 100% | residual activity [11] 87% | residual activity [12] 100% | residual activity [13] 74% | residual activity [14] 100% | residual activity [15] 91% | residual activity [16] 100% | residual activity [17] 90% | residual activity [18] 71% | residual activity [19] 75% | residual activity [20] 100% | residual activity [21] 100% | residual activity [22] 100% | residual activity [23] 96% | residual activity [24] 77% | residual activity [25] 94% | residual activity [26] 94% | residual activity [27] 79% | residual activity [28] 100% | residual activity [29] 100% | residual activity [30] 94% | residual activity [31] 85% | residual activity [32] 95% | residual activity [33] 90% | residual activity [34] 53% | residual activity [35] 50% | residual activity [36] 98% | residual activity [37] 61% | residual activity [38] 100% | residual activity [39] 63% | inhibition [40] 1.11% | inhibition [41] 9.99% | inhibition [42] -7.75% | inhibition [43] 2.72%
